Test results from patent US20220265635A1, “TREATMENT OF NEUROLOGICAL DISEASE” (Aclipse One Inc., priority 2018, published 2022).
Marks after values point to notes of the source that are not given here.

Legend:
[1] = test system: TDP-43^Q331K mouse model; experiment: Example 4 electrophysiology: repetitive stimulation; format: in vivo; details: TDP-43^Q331K mice
Procedure: (§1) Following genotyping, transgenic females were block randomized into three different dosing groups: vehicle once daily, 2.5 mg/kg (6aS)-6-methyl-5,6,6a,7-tetrahydro-4H-dibenzo[de,g]quinoline-10,11-diol twice daily and 5 mg/kg (6aS)-6-methyl-5,6,6a,7-tetrahydro-4H-dibenzo[de,g]quinoline-10,11-diol once daily. The doses were selected based on results of previous internal studies. Animals were weighed daily before dosing and dosed subcutaneously at 10 ml/kg with a solution of 0.5 mg/ml (6aS)-6-methyl-5,6,6a,7-tetrahydro-4H-dibenzo[de,g]quinoline-10,11-diol for the 5 mg/kg dose and 0.25 mg/ml for the 2.5 mg/kg dose. Where animals were dosed twice a day, the doses were at least 6 hours apart and the dosing solution was freshly made for the second dose of the day.
(§2) The study was designed with two main cohorts of mice. One cohort was dosed from 25 days of age until 6 months of age and mice had behavioral testing throughout the study and consisted of 14 mice per group. The other satellite cohort was dosed from 25 days of age until 3 months of age, with no behavioral testing and consisted of 6 mice per group for target engagement and histological assessment. Behavioral tests that were carried out during the experiment were: accelerated rotarod test, gait analysis, and electrophysiology.
Electrophysiological assessment of compound action muscle potential (CMAP) and repetitive stimulation was carried out at 6 weeks, 3 months and 6 months of age.
Mice were anesthetized using gaseous isoflurane and then maintained under gaseous anesthesia using a nose cone for the duration of the experiment. Body temperature was maintained with a heat pad. The fur from the lower left limb was removed using an electric razor followed by hair removal cream in order to allow skin contact of the ring electrodes. Ring electrodes were covered in electrical paste and were placed around the ankle and thigh area of the shaved limb. […]
Repetitive stimulation was carried out after the CMAP was calculated. […]

[2] = Example 4 mouse weights in TDP-43^Q331K mouse model; format: in vivo; details: TDP-43^Q331K mice
Procedure: as §1, §2
Animals were weighed daily before dosing to calculate dose volume. […]

[3] = test system: TDP-43^Q331K mouse model; experiment: Example 4 accelerating rotarod test; format: in vivo; details: TDP-43^Q331K mice, 5 mg/kg once daily s.c., one time point (19 weeks of age)
Procedure: as §1
The study was designed with two main cohorts of mice. One cohort was dosed from 25 days of age until 6 months of age and mice had behavioral testing throughout the study and consisted of 14 mice per group. […]
Mice were tested on the accelerating rotarod (Jones & Roberts for mice, model 7650) once a week from 40 days of age until the end of the study. […] Mice are placed on the rotarod and the time taken to fall from the rotarod (latency to fall) is recorded. For each day of testing, each mouse was tested twice on the rotarod with a small rest in between trials and the best result from the two trials is recorded. […]

[4] = test system: HSF1 regulated genes; experiment: Example 2 in vivo pharmacodynamic study via subcutaneous dosing, cortex: expression of genes upregulated by HSF1 activation; design: species or system mouse; details: for Dlg4 gene induction / Dnajba gene induction / Hspa1a gene induction / Hspa8 gene induction / Syn1 gene induction: wildtype mouse cortex, 5 mg/kg s.c. once daily 7 days, compared to Gapdh
Procedure: Wildtype mice (3 per group) were dosed subcutaneously at 0, 0.5, 1.5, 5 and 10 mg/kg (6aS)-6-methyl-5,6,6a,7-tetrahydro-4H-dibenzo[de,g]quinoline-10,11-diol hydrochloride for 7 days once daily. One animal in the 10 mg/kg dosing group was actually dosed 15 mg/kg on Day 1. To prepare the dosing solutions, (6aS)-6-methyl-5,6,6a,7-tetrahydro-4H-dibenzo[de,g]quinoline-10,11-diol was pre-weighed into bijous and stored in foil.

[5] = test system: heat shock protein Hspa8 and Hspa1a; experiment: Example 3 in vivo pharmacodynamic study via oral dosing: RT-qPCR of brain; details: mouse brain, 25 mg/kg oral once daily 4 days; for Relative expression of Hspa1a normalized with Group 1 / Relative expression of Hspa8 normalized with Group 1: normalized to Actb
Procedure: Wildtype mice were dosed orally at 25 mg/kg (6aS)-6-methyl-5,6,6a,7-tetrahydro-4H-dibenzo[de,g]quinoline-10,11-diol for 4 days once daily.
A total of 36 mice were randomly divided into twelve groups. Each group had 3 mice. After oral administration of (6aS)-6-methyl-5,6,6a,7-tetrahydro-4H-dibenzo[de,g]quinoline-10,11-diol once a day for 4 consecutive days, brains of mice in each group were sampled individually at the time point of 0, 5, 15, 30 min, 1, 2, 3, 4, 8, 12, 24 and 48 hour post the last oral dose. A quarter of whole brain from each mouse in every time group underwent a real-time quantitative polymerase chain reaction (RT-qPCR) analysis. Before RNA extraction, brain tissues were frozen immediately in liquid nitrogen, and were transferred to −80° C. until further use.
Total RNA from 36 frozen brain samples were extracted using Trizol reagent (Invitrogen, Carlsbad, Calif., USA, 15596018) according to the manufacturer's instructions. After extraction, the integrity of total RNA was be checked by 1% agarose gel staining with ethidium bromide as well as by nanodrop (Thermo Fisher, USA). Then, 2 μg of total RNA was used for reverse transcription by M-MLV Reverse Transcriptase (Invitrogen, 28025-013) with gDNA removal (NEB, M0303S). qRT-PCR analysis was performed using LightCycler® 480 Probe Master (4887301001, Roche, Basel, Switzerland) and the Roche LightCycler480 (Roche). The data from triplicate experiments were subjected to statistical analysis and the target genes were normalized against the levels of actin beta (Actb) mRNA. The primers are listed as follows: […]

[6] = Group 3 (15 min) post last dose
[7] = Group 4 (30 min) post last dose
[8] = Group 10 (12 Hr) post last dose
[9] = Group 11 (24 Hr) post last dose
[10] = Group 12 (48 Hr) post last dose

CN1CCc2cccc3c2[C@@H]1Cc1ccc(O)c(O)c1-3 [(6aS)-6-methyl-5,6,6a,7-tetrahydro-4H-dibenzo[de,g]quinoline-10,11-diol]
repetitive stimulation, between the dose groups ([1]; 3 months): no significant difference
repetitive stimulation response compared to the vehicle dosing group ([1]; 6 months of age, 2.5 mg/kg dose group, stimulation numbers 5 and 7): significant increase
repetitive stimulation response (percentage of the first stimulation) compared to vehicle ([1]; 6 weeks of age, 2.5 mg/kg twice daily, final stimulation, significant difference): larger decrease in response
mouse weight compared to the vehicle dosing group ([2]; 3-month cohort, either dosing group (2.5 mg/kg twice daily, 5 mg/kg once daily s.c.)): no significant difference
mouse weight compared to the vehicle dosing group ([2]; 6-month cohort, 2.5 mg/kg dosing group, from 121 days of age until the end of the study): significant decrease
rotarod performance (latency to fall) compared to vehicle dosed animals [3]: significant increase
dose at which HSF1 regulated genes are activated ([4]; mice, s.c. once daily 7 days, Example 2): ≥ 0.5 mg/kg
Dlg4 gene induction ([4]; 6 hours post final dose): 1.46 fold
Dnajba gene induction ([4]; 6 hours post final dose): 1.31 fold
Hspa1a gene induction ([4]; 6 hours post final dose): 1.84 fold
Hspa8 gene induction ([4]; 6 hours post final dose): 1.56 fold
Syn1 gene induction ([4]; 6 hours post final dose): 1.68 fold
Dlg4 gene induction ([4]; 24 hours post final dose): 0.90 fold
Dnajba gene induction ([4]; 24 hours post final dose): 1.17 fold
Hspa1a gene induction ([4]; 24 hours post final dose): 2.25 fold
Hspa8 gene induction ([4]; 24 hours post final dose): 2.62 fold
Syn1 gene induction ([4]; 24 hours post final dose): 1.47 fold
Relative expression of Hspa1a normalized with Group 1 ([5]; Group 1 (0 min) post last dose): 1.00
Relative expression of Hspa8 normalized with Group 1 ([5]; Group 1 (0 min) post last dose): 1.00
Relative expression of Hspa1a normalized with Group 1 ([5]; Group 2 (5 min) post last dose): 0.96
Relative expression of Hspa8 normalized with Group 1 ([5]; Group 2 (5 min) post last dose): 0.85
Relative expression of Hspa1a normalized with Group 1 [5, 6]: 1.05
Relative expression of Hspa8 normalized with Group 1 [5, 6]: 0.89
Relative expression of Hspa1a normalized with Group 1 [5, 7]: 1.06
Relative expression of Hspa8 normalized with Group 1 [5, 7]: 0.91
Relative expression of Hspa1a normalized with Group 1 ([5]; Group 5 (1 Hr) post last dose): 0.90
Relative expression of Hspa8 normalized with Group 1 ([5]; Group 5 (1 Hr) post last dose): 0.92
Relative expression of Hspa1a normalized with Group 1 ([5]; Group 6 (2 Hr) post last dose): 1.02
Relative expression of Hspa8 normalized with Group 1 ([5]; Group 6 (2 Hr) post last dose): 0.96
Relative expression of Hspa1a normalized with Group 1 ([5]; Group 7 (3 Hr) post last dose): 1.10
Relative expression of Hspa8 normalized with Group 1 ([5]; Group 7 (3 Hr) post last dose): 0.96
Relative expression of Hspa1a normalized with Group 1 ([5]; Group 8 (4 Hr) post last dose): 1.09
Relative expression of Hspa8 normalized with Group 1 ([5]; Group 8 (4 Hr) post last dose): 1.01
Relative expression of Hspa1a normalized with Group 1 ([5]; Group 9 (8 Hr) post last dose): 2.25*
Relative expression of Hspa8 normalized with Group 1 ([5]; Group 9 (8 Hr) post last dose): 1.11
Relative expression of Hspa1a normalized with Group 1 [5, 8]: 1.33*
Relative expression of Hspa8 normalized with Group 1 [5, 8]: 1.17**
Relative expression of Hspa1a normalized with Group 1 [5, 9]: 1.04
Relative expression of Hspa8 normalized with Group 1 [5, 9]: 1.14**
Relative expression of Hspa1a normalized with Group 1 [5, 10]: 1.04
Relative expression of Hspa8 normalized with Group 1 [5, 10]: 0.99
Hspa1a mRNA level compared with group 1 (in words) ([5]; group 9 and 10 (8 Hr, 12 Hr)): significant increase
mRNA expression levels of Hspa8 compared with group 1 (in words) ([5]; group 10 and 11 (12 Hr, 24 Hr)): slight increase
group in which Hspa1a mRNA level reached a peak ([5]; group 9 = 8 Hr post last dose): group 9
